Measured values: patent publication US20040097408A1, “Compounds regulating cell proliferation and differentiation” (priority 2001, published 2004)

Experiments:
control EpH4-EV cells = test: cytoblot of QR on normal cells; format: cell-based, mouse
From the text: (§1) The compound was included in cytoblot experiments, as described above, on the following cells: EpH4-A6 and control EpH4-EV cells and the following human breast cancer cell lines: FKBR3 (Neu positive cells); MDA-MD-468 (which over-express EGFR); and MCF-7 (which over-express Her3/ErbB3; EGFR and Neu).

[1] = system: EpH4-A6, FKBR3, MDA-MD-468 and MCF-7 cells; test: cytoblot of QR on transformed cells; format: cell-based
From the text: as §1

[2] = system: mitochondria of cancer cells; test: accumulation of QR in mitochondria; format: cell-based
A6 cells = test: effect of FCCP and valinomycin on F16 accumulation in mitochondria; format: cell-based, mouse; details: F16 3 μM
Protocol: In order to test the contribution of the mitochondrial membrane potential (ΔΨm) to the accumulation of F16 in mitochondria, the effect of FCCP, an uncoupler of mitochondrial respiration, and the effect of valinomycin, a potassium ionosphore, were tested.
The effect of the protonophore FCCP on F16 accumulation was performed as previously done for the colocalization experiments described above. EpH4-A6 cells preincubated with F16 (3 μM) were subsequently treated with 5 μM FCCP. Images were acquired immediately before, 1 min and 5 min after FCCP addition and visulized under 40× magnification.

SMILES: CC[n+]1c(/C=C/c2ccc(N(C)C)cc2)ccc2ccccc21 [QR, Quinaldine Red]
- concentration inhibiting normal cells (control EpH4-EV cells): ≥ 10 µM
- proliferation of transformed cells at 10 nM ([1]; 10 nM): partially inhibited
- proliferation of transformed cells at 100 nM ([1]; 100 nM): essentially completely inhibited
- concentration inhibiting proliferation of transformed cells (as low as) ([1]; all of the transformed cells tested): 10 nM
- accumulation in mitochondria [2]: accumulate in mitochondria of cancer cells and essentially not in mitochondria of normal cells

SMILES: N#CC(C#N)=NNc1ccc(OC(F)(F)F)cc1 [FCCP]
- effect of preincubation on F16 entry and accumulation in mitochondria (A6 cells): retarded the entry and greatly reduced the overall accumulation of F16 inside mitochondria

SMILES: CC(C)[C@@H]1NC(=O)[C@H](C)OC(=O)[C@@H](C(C)C)NC(=O)[C@@H](C(C)C)OC(=O)[C@H](C(C)C)NC(=O)[C@H](C)OC(=O)[C@@H](C(C)C)NC(=O)[C@@H](C(C)C)OC(=O)[C@H](C(C)C)NC(=O)[C@H](C)OC(=O)[C@@H](C(C)C)NC(=O)[C@@H](C(C)C)OC1=O [valinomycin]
- effect of preincubation on F16 entry and accumulation in mitochondria (A6 cells): retarded the entry and greatly reduced the overall accumulation of F16 inside mitochondria
